Like-named read-outs stand apart in the source and are kept apart here.
How the values were obtained:
[1] = test method: maximization method; cited from earlier work
[2] = negative = satisfies at least one of (1) LLNA SI less than 3, (2) MSDS, (3) reference; cited from earlier work
[3] = cited from earlier work
[4] = test method: OECD Test Guideline 406; cited from earlier work
Female mice = assay: Skin sensitization test by LLNA (Local Lymph Node Assay) method, SI value; type: in vivo; details: test substance 50.0 w/v % in acetone:olive oil 4:1, 25 μL/auricle, once/day × 3 days, SI less than 3 = negative
Experimental: In the (1), it is judged that a compound is negative in skin sensitization when the SI value of the compound is less than 3, as described in the journal of “Function and Materials”, September, 2005, volume 25, No. 9, on page 55. The lower the SI value is, the lower skin sensitization is.
The SI value was measured by a skin sensitization test by LLNA (Local Lymph Node Assay) method as described below.
α-Hexyl cinnamaldehyde (HCA, available from Wako Pure Chemical Industries, Ltd.) was used as the positive control substance.
A mixture liquid obtained by mixing acetone (available from Wako Pure Chemical Industries, Ltd.) and an olive oil (available from Fujimi Pharmaceutical Co., Ltd.) at a volume ratio (acetone:olive oil) of 4:1 was used as the medium. […]
Based on the body weights of the animals measured two days before sensitization was started, the animals were divided into two groups (4 mice/group) in a manner that the body weight of each individual would be within ±20% of the average body weight of the whole group according to a body weight stratified random sampling method. […]
About twenty four hours after the BrdU administration, the animals were euthanized, and the auricular lymph nodes were extracted. […] The average value and standard error of the weight of the auricular lymph nodes per group were calculated. […]

C=C(C)C(=O)OCCCCC [Example A3, n-Pentyl methacrylate]
Skin sensitization evaluated according to the reference [1]: negative | Skin sensitization [2]: negative | Vapor pressure ([3]; 25° C.): 69.1 Pa

CSc1ccc(C(=O)C(C)(C)N2CCOCC2)cc1 [Example C3, 2-[4-(Methylthio)benzoyl]-2-(4-morpholinyl)propane]
Skin sensitization evaluated according to the MSDS [4]: nothing

C=C(C)C(=O)OCC(CO)OC(=O)C(=C)C (stereo not shown) [Example B2, Glycerol dimethacrylate]
SI value (Stimulation Index) measured by LLNA test (Female mice): 1.2 | Skin sensitization [2]: negative

tricyclodecane dimethanol dimethacrylate
Skin sensitization [2]: negative

O=C(c1ccccc1)C1(O)CCCCC1 [Example C1, 1-Hydroxy-cyclohexyl phenyl ketone]
Skin sensitization [2]: negative | Skin sensitization evaluated according to the MSDS [4]: nothing

CCC(Cc1ccc(C)cc1)(C(=O)c1ccc(N2CCOCC2)cc1)N(C)C (stereo not shown) [Example C2, 2-Dimethylamino-2-(4-methylbenzyl)-1-(4-morpholin-4-yl-phenyl)butan-1-one]
Skin sensitization evaluated according to the MSDS [4]: nothing

C=CC(=O)OCc1ccccc1 [benzyl acrylate, reference compound]
Skin sensitization [2]: positive | Vapor pressure ([3]; 25° C.): 9.7 Pa

C=C(C)C(=O)OCCCCCC [Example A4, n-Hexyl methacrylate]
Skin sensitization evaluated according to the reference [1]: negative | Skin sensitization [2]: negative | Vapor pressure ([3]; 20° C.): 34.7 Pa

polyethylene glycol dimethacrylate
Skin sensitization [2]: negative

CCC(Cc1ccc(C)cc1)(C(=O)c1ccc(N2CCOCC2)cc1)N(C)C (stereo not shown) [2-dimethylamino-2-(4-methylbenzyl)-1-(4-morpholin-4-yl-phenyl)butan-1-one]
Skin sensitization [2]: negative

Caprolactone-modified dipentaerythritolhexaacrylate [Example B5]
Skin sensitization [2]: negative

C=C(C)C(=O)OC(C)(C)C [Example A2, t-butyl methacrylate]
Skin sensitization evaluated according to the reference [1]: negative | Skin sensitization [2]: negative | Vapor pressure ([3]; 18.5° C.): 700 Pa

C=C(C)C(=O)OCC(CC)(COC(=O)C(=C)C)COC(=O)C(=C)C [Example B6, Trimethylolpropane trimethacrylate]
SI value (Stimulation Index) measured by LLNA test (Female mice): 1.9

Reference: US10414150B2, “Active-energy-ray-curable composition, composition stored container, two-dimensional or three-dimensional image forming apparatus, method for forming two-dimensional or three-dimensional image, and cured product” (Ricoh Company, Ltd., priority 2015, dated 2019)
